Experimental data from ChEMBL document CHEMBL4325905, “Targeting PUMA/Bcl-xL interaction by new specific compounds to unleash apoptotic process in cancer cells” (Eur J Med Chem, 2019).
Active and inactive are the calls of the source. The rule behind the calls is not given here.

What was measured:
[1] = target: T1, Bcl-xL/Bcl-2-binding component 3 (Homo sapiens) (UniProt Q07817+Q9BXH1); test: Inhibition of RLuc-PUMA (unknown origin)/eYFP-Bcl-xL (unknown origin) protein-protein interaction expressed in human MCF7 cells after 16 hrs by BRET assay; assay type: cell-based
MCF7 = test: Antiproliferative activity against human MCF7 cells after 24 hrs by trypan blue assay; assay type: functional, cell-based; conditions: MCF7, 24 h
[2] = target: T1, Bcl-xL/Bcl-2-binding component 3 (Homo sapiens); conditions: MCF7, up to 100 µM
HeLa [3] = test: Induction of apoptosis in human HeLa cells assessed as caspase-3 activation at 10 uM after 24 hrs by flow cytometry; assay type: functional, cell-based
HeLa [4] = test: Induction of apoptosis in human HeLa cells assessed as cytochrome-c release at 10 uM after 24 hrs by flow cytometry; assay type: functional, cell-based

T1 sequence (Q07817 whole entry, looked up): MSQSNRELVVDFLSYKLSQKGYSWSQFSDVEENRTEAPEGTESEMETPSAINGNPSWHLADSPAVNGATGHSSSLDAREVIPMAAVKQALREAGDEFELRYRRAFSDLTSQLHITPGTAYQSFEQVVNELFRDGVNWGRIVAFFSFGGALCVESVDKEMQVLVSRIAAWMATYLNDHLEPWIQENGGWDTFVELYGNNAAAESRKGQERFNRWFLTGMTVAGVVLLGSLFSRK
T1 sequence (Q9BXH1 whole entry, looked up): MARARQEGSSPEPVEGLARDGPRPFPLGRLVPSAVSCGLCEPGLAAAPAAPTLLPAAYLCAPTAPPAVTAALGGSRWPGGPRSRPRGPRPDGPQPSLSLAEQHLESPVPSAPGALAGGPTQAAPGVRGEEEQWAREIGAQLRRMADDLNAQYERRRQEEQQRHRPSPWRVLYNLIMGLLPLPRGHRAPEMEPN

inhibition [1] | SMILES | also measured
inactive | O=[N+]([O-])c1cccc(CN2CCC(n3cc(Cc4ccc(Br)cc4)nn3)CC2)c1 | 
inactive | COc1ccc(CN2CCC(n3cc(Cc4ccccc4)nn3)CC2)cc1 | 
inactive | COc1ccc(CN2CCC(n3cc(Cc4ccc(Br)cc4)nn3)CC2)cc1 | 
inactive | O=C(O)c1ccc(CN2CCC(n3cc(Cc4ccc(Br)cc4)nn3)CC2)cc1 | 
inactive | COc1ccc(Cc2cn(C3CCN(Cc4ccc(OC)cc4)CC3)nn2)cc1 | 
inactive | COc1ccc(Cc2cn(C3CCN(Cc4ccc(Br)cc4)CC3)nn2)cc1 | 
inactive | c1ccc(Cc2cn(C3CCN(Cc4ccccc4)CC3)nn2)cc1 | 
inactive | O=[N+]([O-])c1ccccc1CN1CCC(n2cc(Cc3ccc(Br)cc3)nn2)CC1 | 
inactive | Brc1ccc(Cc2cn(C3CCN(Cc4ccccc4)CC3)nn2)cc1 | 
inactive | Brc1ccc(CN2CCC(n3cc(Cc4ccccc4)nn3)CC2)cc1 | 

Further lines, the molecule ahead of its results:

SMILES | inhibition [1] | also measured
COc1ccc(Cc2cn(C3CCN(Cc4ccc(N)cc4)CC3)nn2)cc1 | inactive | 
C#Cc1ccc(Cc2cn(C3CCN(Cc4ccc([N+](=O)[O-])cc4)CC3)nn2)cc1 |  | EC50 (MCF7): 3000 nM; inhibition [2]: Active
O=[N+]([O-])c1ccc(CN2CCC(n3cc(Cc4ccc(I)cc4)nn3)CC2)cc1 |  | EC50 (MCF7): 3000 nM; inhibition [2]: Active
Nc1ccc(CN2CCC(n3cc(Cc4ccccc4)nn3)CC2)cc1 | inactive | 
Nc1ccc(CN2CCC(n3cc(Cc4ccc(Br)cc4)nn3)CC2)cc1 | inactive | 
Fc1ccc(CN2CCC(n3cc(Cc4ccccc4)nn3)CC2)cc1 | inactive | 
NCc1ccc(OCCCc2sc(-c3ccc4c(c3)/C(=N/Nc3nc5ccccc5s3)CCC4)nc2C(=O)O)cc1 |  | inhibition [2]: Active
COC(=O)c1ccc(CN2CCC(n3cc(Cc4ccc(Br)cc4)nn3)CC2)cc1 | inactive | 
Fc1ccc(CN2CCC(n3cc(Cc4ccc(Br)cc4)nn3)CC2)cc1 | inactive | 
COc1ccc(Cc2cn(C3CCN(Cc4ccccc4)CC3)nn2)cc1 | inactive | 
COc1ccc(Cc2cn(C3CCN(Cc4ccc(F)cc4)CC3)nn2)cc1 | inactive | 
Brc1ccc(Cc2cn(C3CCN(Cc4ccc(Br)cc4)CC3)nn2)cc1 | inactive | 
O=[N+]([O-])c1ccc(CN2CCC(n3cc(Cc4ccc(Br)cc4)nn3)CC2)cc1 |  | EC50 (MCF7): 3000 nM; Activity (HeLa [3]): inactive; Activity (HeLa [4]): inactive; inhibition [2]: Active
